According to patent US20240309117A1, “APTAMER-PEPTIDE CONJUGATES” (CITY UNIVERSITY OF HONG KONG, priority 2023, published 2024):
[L-RNA-N] = L-ribonucleotide (mirror-image RNA) unit (N: the base)

Tests used:
[1] = tested on: hTERC rG4 WT; assay: Dual-luciferase reporter assay, hTERC rG4 WT, HEK 293T cells; format: cell-based, human
Experimental: (§1) The DNA sequences encoding hTERC rG4 WT, hTERC rG4 Mut, NRAS rG4 WT, NRAS rG4 Mut, APP rG4 WT, and APP rG4 Mut (Table 1) were respectively introduced into the 5′UTR of the renilla luciferase gene in the psiCHECK-2 vector. 2×10^4 HeLa cells were seeded on 96-well black-wall plates. In sequential addition assay, 10 ng WT and Mut plasmids were transfected to cells by LIPOFECTAMINE® 2000 separately. Subsequently, Tamra_Ahx_R8, Tamra_Ahx_R8_L-Apt.4-1c, and L-Apt.4-1c (0, 100 nM, 200 nM) were separately added to cells after being washed with phosphate buffered saline (PBS) at 4 hours post-transfection and incubated for 48 hours. In co-transfection assay, 10 ng WT or Mut plasmid was co-transfected with Tamra_Ahx_R8, Tamra_Ahx_R8_L-Apt.4-1c, and L-Apt.4-1c (0, 100 nM, 200 nM) separately to cells by LIPOFECTAMINE® 2000 and incubated for 48 hours. Luciferase activity was determined by microplate reader. The renilla activity was normalized to firefly activity for data analysis.

[2] = tested on: hTERC rG4 WT; assay: Dual-luciferase reporter gene assay, hTERC rG4 WT, HeLa cells; format: cell-based, human; conditions: 200 nM, 48 hours
Experimental: as §1

Substance: L-Apt.4-1c: the L-RNA aptamer of SEQ ID NO: 1 (GCCCUAAAGGUGGUGGUGGGAGGGC), non-conjugated control (all [L-RNA-N], backbone not given here)
- Effect on normalized luciferase activity, hTERC rG4 WT construct [1]: cannot regulate luciferase activity
- Effect on normalized luciferase activity, hTERC rG4 WT construct ([2]; co-transfection with plasmid by LIPOFECTAMINE 2000, 0, 100 nM): only functioned well in co-transfection method
- Effect on normalized luciferase activity, hTERC rG4 WT construct ([2]; sequential addition, absence of transfection reagent, 0, 100 nM): neither Tamra_Ahx_R8 peptide nor L-Apt.4-1c modulated luciferase activity
